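Method: 48-hour compound exposure of cells in 96-well plates, five concentrations, linear interpolation of endpoints. GI50 is the concentration that inhibits growth by half.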 Activity calls are given as the source filed them. Cut-off read from the data, not from the text of the source: active = GI50 up to about 1.1 µM and inactive = higher.
What was measured:
Test in all cases: growth of human tumour cells (NCI), 48 h
[1] = tested on: 786-0
[2] = tested on: A498
[3] = tested on: A549
[4] = tested on: ACHN
[5] = tested on: BT-549
[6] = tested on: CAKI-1
[7] = tested on: CCRF-CEM
[8] = tested on: COLO 205
[9] = tested on: DU-145
[10] = tested on: EKVX
[11] = tested on: HCC 2998
[12] = tested on: HCT-116
[13] = tested on: HCT-15
[14] = tested on: HL-60
[15] = tested on: HOP-62
[16] = tested on: HOP-92
[17] = tested on: HT-29
[18] = tested on: Hs-578T
[19] = tested on: IGROV-1
[20] = tested on: K562
[21] = tested on: KM12
[22] = tested on: LOX IMVI
[23] = tested on: M14
[24] = tested on: MCF7
[25] = tested on: MDA-MB-231
[26] = tested on: MDA-MB-435
[27] = tested on: MDA-N
[28] = tested on: MOLT-4
[29] = tested on: Malme-3M
[30] = tested on: NCI-H226
[31] = tested on: NCI-H23
[32] = tested on: NCI-H460
[33] = tested on: NCI/ADR-RES
[34] = tested on: OVCAR-3
[35] = tested on: OVCAR-4
[36] = tested on: OVCAR-5
[37] = tested on: OVCAR-8
[38] = tested on: PC-3
[39] = tested on: RPMI-8226
[40] = tested on: RXF 393
[41] = tested on: SF-268
[42] = tested on: SF-295
[43] = tested on: SF-539
[44] = tested on: SK-MEL-28
[45] = tested on: SK-MEL-2
[46] = tested on: SK-MEL-5
[47] = tested on: SK-OV-3
[48] = tested on: SN12C
[49] = tested on: SNB-19
[50] = tested on: SNB-75
[51] = tested on: SW-620
[52] = tested on: T47D
[53] = tested on: TK-10
[54] = tested on: U-251
[55] = tested on: UACC-257
[56] = tested on: UACC-62
[57] = tested on: UO-31
[58] = tested on: NCI-H522
[59] = tested on: SR

Which results are given for `N[C@@H](Cc1ccccc1)C(=O)N1CCC[C@@H]1P(=O)(Oc1ccccc1)Oc1ccccc1`?
GI50 [1]: > 100 µM (inactive); GI50 [2]: > 100 µM (inactive); GI50 [3]: > 100 µM (inactive); GI50 [4]: > 100 µM (inactive); GI50 [5]: > 100 µM (inactive); GI50 [6]: > 100 µM (inactive); GI50 [7]: > 100 µM (inactive); GI50 [8]: > 100 µM (inactive); GI50 [9]: > 100 µM (inactive); GI50 [10]: > 100 µM (inactive); GI50 [11]: 39.3 µM (inactive); GI50 [12]: > 100 µM (inactive); GI50 [13]: > 100 µM; GI50 [14]: > 100 µM (inactive); GI50 [15]: > 100 µM (inactive); GI50 [16]: > 100 µM (inactive); GI50 [17]: 86.3 µM (inactive); GI50 [18]: > 100 µM (inactive); GI50 [19]: > 100 µM (inactive); GI50 [20]: 77.8 µM (inactive); GI50 [21]: > 100 µM (inactive); GI50 [22]: > 100 µM (inactive); GI50 [23]: > 100 µM (inactive); GI50 [24]: > 100 µM (inactive); GI50 [25]: > 100 µM (inactive); GI50 [26]: > 100 µM (inactive); GI50 [27]: > 100 µM (inactive); GI50 [28]: 60.3 µM (inactive); GI50 [29]: > 100 µM (inactive); GI50 [30]: > 100 µM (inactive); GI50 [31]: > 100 µM (inactive); GI50 [32]: > 100 µM (inactive); GI50 [33]: > 100 µM (inactive); GI50 [34]: > 100 µM (inactive); GI50 [35]: > 100 µM (inactive); GI50 [36]: > 100 µM (inactive); GI50 [37]: > 100 µM (inactive); GI50 [38]: 33.6 µM (inactive); GI50 [39]: 96.4 µM (inactive); GI50 [40]: > 100 µM (inactive); GI50 [41]: > 100 µM (inactive); GI50 [42]: > 100 µM (inactive); GI50 [43]: > 100 µM (inactive); GI50 [44]: > 100 µM (inactive); GI50 [45]: > 100 µM (inactive); GI50 [46]: 78.2 µM (inactive); GI50 [47]: > 100 µM (inactive); GI50 [48]: > 100 µM (inactive); GI50 [49]: > 100 µM (inactive); GI50 [50]: > 100 µM (inactive); GI50 [51]: > 100 µM (inactive); GI50 [52]: > 100 µM (inactive); GI50 [53]: > 100 µM (inactive); GI50 [54]: > 100 µM (inactive); GI50 [55]: > 100 µM (inactive); GI50 [56]: > 100 µM (inactive); GI50 [57]: > 100 µM (inactive)

What does the source list for `Oc1cc(-c2cccc(OC(F)(F)F)c2)nc2cc3c(cc12)OCO3`?
GI50 [1]: 0.0902 µM (active); GI50 [2]: 0.516 µM (active); GI50 [3]: 0.182 µM (active); GI50 [4]: > 32.7 µM (inactive); GI50 [5]: 0.327 µM (active); GI50 [6]: 0.0885 µM (active); GI50 [7]: 0.0301 µM (active); GI50 [8]: 1.24 µM (inactive); GI50 [9]: 0.0459 µM (active); GI50 [10]: 0.643 µM (active); GI50 [11]: 0.0631 µM (active); GI50 [12]: 0.0395 µM (active); GI50 [13]: 0.0475 µM; GI50 [14]: 0.0131 µM (active); GI50 [15]: 0.119 µM (active); GI50 [16]: 1.05 µM (active); GI50 [17]: 1.96 µM (inactive); GI50 [18]: 0.1 µM (active); GI50 [19]: 0.355 µM (active); GI50 [20]: 0.0275 µM (active); GI50 [21]: 0.0968 µM (active); GI50 [23]: 0.0867 µM (active); GI50 [24]: 0.135 µM (active); GI50 [25]: 0.144 µM (active); GI50 [26]: < 0.0156 µM (active); GI50 [27]: 0.0143 µM (active); GI50 [28]: 0.0371 µM (active); GI50 [29]: 0.0435 µM (active); GI50 [30]: 0.239 µM (active); GI50 [31]: 0.12 µM (active); GI50 [32]: 0.0877 µM (active); GI50 [58]: 0.0441 µM (active); GI50 [33]: 0.0334 µM (active); GI50 [34]: 0.0547 µM (active); GI50 [35]: 1.19 µM (inactive); GI50 [37]: 0.155 µM (active); GI50 [38]: 0.0366 µM (active); GI50 [39]: 0.0508 µM (active); GI50 [40]: 0.166 µM (active); GI50 [41]: 2.72 µM (inactive); GI50 [42]: 0.0845 µM (active); GI50 [43]: 0.084 µM (active); GI50 [44]: 0.323 µM (active); GI50 [45]: 0.169 µM (active); GI50 [46]: 0.0508 µM (active); GI50 [47]: 0.282 µM (active); GI50 [48]: 0.169 µM (active); GI50 [49]: 0.0938 µM (active); GI50 [50]: 0.568 µM (active); GI50 [51]: 0.0883 µM (active); GI50 [52]: 55.7 µM (inactive); GI50 [53]: 5.19 µM (inactive); GI50 [54]: 0.0658 µM (active); GI50 [55]: 1.68 µM (inactive); GI50 [56]: 0.123 µM (active); GI50 [57]: 0.174 µM (active)

`Cn1c(N)c(Cc2ccc(Cl)cc2)c(=O)[nH]c1=O` was tested. Which GI50 [1] did it give?
The GI50 was > 100 µM (inactive).

And the GI50 [2]?
The GI50 was > 100 µM (inactive).

And the GI50 [3]?
The GI50 was > 100 µM (inactive).

What about the GI50 [4] of the same compound?
The GI50 was > 100 µM (inactive).

And the GI50 [5]?
Its GI50 is > 100 µM (inactive).

And the GI50 [6]?
Its GI50 is > 100 µM (inactive).

And the GI50 [7]?
Its GI50 is > 100 µM (inactive).

And the GI50 [8]?
The GI50 was > 100 µM (inactive).

What about the GI50 [9] of the same compound?
Its GI50 is > 100 µM (inactive).

And the GI50 [10]?
The GI50 was > 100 µM (inactive).

What about the GI50 [12] of the same compound?
The GI50 was > 100 µM (inactive).

And the GI50 [13]?
Its GI50 is > 100 µM.

What about the GI50 [14] of the same compound?
Its GI50 is > 100 µM (inactive).

What about the GI50 [15] of the same compound?
The GI50 was > 100 µM (inactive).

What about the GI50 [16] of the same compound?
The GI50 was 89.7 µM (inactive).

What about the GI50 [17] of the same compound?
The GI50 was > 100 µM (inactive).

What about the GI50 [18] of the same compound?
The GI50 was > 100 µM (inactive).

What about the GI50 [19] of the same compound?
The GI50 was > 100 µM (inactive).

What about the GI50 [20] of the same compound?
Its GI50 is > 100 µM (inactive).

And the GI50 [21]?
Its GI50 is > 100 µM (inactive).

And the GI50 [22]?
The GI50 was > 100 µM (inactive).

What about the GI50 [23] of the same compound?
Its GI50 is > 100 µM (inactive).

And the GI50 [24]?
The GI50 was > 100 µM (inactive).

What about the GI50 [25] of the same compound?
The GI50 was > 100 µM (inactive).

What about the GI50 [26] of the same compound?
The GI50 was > 100 µM (inactive).

What about the GI50 [27] of the same compound?
The GI50 was > 100 µM (inactive).

And the GI50 [28]?
Its GI50 is > 100 µM (inactive).

What about the GI50 [29] of the same compound?
The GI50 was > 100 µM (inactive).

What about the GI50 [30] of the same compound?
The GI50 was > 100 µM (inactive).

And the GI50 [31]?
Its GI50 is > 100 µM (inactive).

And the GI50 [58]?
The GI50 was > 100 µM (inactive).

What about the GI50 [33] of the same compound?
The GI50 was > 100 µM (inactive).

And the GI50 [34]?
Its GI50 is > 100 µM (inactive).

And the GI50 [36]?
Its GI50 is > 100 µM (inactive).

And the GI50 [37]?
The GI50 was > 100 µM (inactive).

What about the GI50 [39] of the same compound?
Its GI50 is > 100 µM (inactive).

And the GI50 [40]?
Its GI50 is > 100 µM (inactive).

And the GI50 [41]?
Its GI50 is > 100 µM (inactive).

And the GI50 [42]?
Its GI50 is > 100 µM (inactive).

What about the GI50 [43] of the same compound?
The GI50 was > 100 µM (inactive).

And the GI50 [44]?
Its GI50 is > 100 µM (inactive).

And the GI50 [45]?
Its GI50 is > 100 µM (inactive).

And the GI50 [46]?
Its GI50 is > 100 µM (inactive).

What about the GI50 [47] of the same compound?
The GI50 was > 100 µM (inactive).

And the GI50 [48]?
Its GI50 is > 100 µM (inactive).

What about the GI50 [49] of the same compound?
The GI50 was > 100 µM (inactive).

And the GI50 [50]?
The GI50 was 62.8 µM (inactive).

What about the GI50 [59] of the same compound?
Its GI50 is > 100 µM (inactive).

And the GI50 [51]?
The GI50 was > 100 µM (inactive).

What about the GI50 [52] of the same compound?
Its GI50 is > 100 µM (inactive).

And the GI50 [53]?
Its GI50 is > 100 µM (inactive).

And the GI50 [55]?
Its GI50 is > 100 µM (inactive).

What about the GI50 [56] of the same compound?
Its GI50 is > 100 µM (inactive).

And the GI50 [57]?
The GI50 was > 100 µM (inactive).

Reference: ChEMBL document CHEMBL1201862, “PubChem BioAssay data set” (2004)
